Molecular target: R232-STING (Homo sapiens, UniProt Q86WV6, H232R)
Experiment: biochemical

Sequence of R232-STING (Q86WV6 155-341 H232R): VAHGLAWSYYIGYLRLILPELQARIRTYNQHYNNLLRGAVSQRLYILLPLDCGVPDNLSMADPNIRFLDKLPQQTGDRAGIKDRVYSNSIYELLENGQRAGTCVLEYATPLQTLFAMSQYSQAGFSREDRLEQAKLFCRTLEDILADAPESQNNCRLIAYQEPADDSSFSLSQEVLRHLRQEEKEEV

| Ki | SMILES |
| --- | --- |
| > 990 nM | CCn1nc(C)cc1-c1nnc(-c2cc(C(N)=O)cc3c2cnn3CC2(CN(C)C)CC2)[nH]1 [ZZZ028, 1-({1-[(dimethylamino)methyl]cyclopropyl}methyl)-4-[5-(1-ethyl-3-methyl-1H-pyrazol-5-yl)-4H-1,2,4-triazol-3-yl]-1H-indazole-6-carboxamide] |
| > 990 nM | CCn1nc(CO)cc1-c1n[nH]c(-c2nc(C(N)=O)cc3[nH]ncc23)n1 [ZZZ046, 4-{3-[1-ethyl-3-(hydroxymethyl)-1H-pyrazol-5-yl]-1H-1,2,4-triazol-5-yl}-1H-pyrazolo[4,3-c]pyridine-6-carboxamide] |
| 850 nM | CCn1nc(C)cc1-c1nnc(-c2cc(C(N)=O)cc3c2cnn3CCCN(C)C)[nH]1 [ZZZ007, 1-[3-(dimethylamino)propyl]-4-[5-(1-ethyl-3-methyl-1H-pyrazol-5-yl)-4H-1,2,4-triazol-3-yl]-1H-indazole-6-carboxamide] |
| 848 nM | CCn1nc(C)cc1-c1n[nH]c(-c2cc(C(N)=O)cc3c2cnn3CCN2CCO[C@@H](C3CC3)C2)n1 (racemic) [ZZZ117, 1-{2-[(2S)-2-cyclopropylmorpholin-4-yl]ethyl}-4-[3-(1-ethyl-3-methyl-1H-pyrazol-5-yl)-1H-1,2,4-triazol-5-yl]-1H-indazole-6-carboxamide] |
| 561 nM | CCn1nc(C)cc1-c1nnc(-c2cc(C(N)=O)cc3c2cnn3CCCN2CCO[C@@H](C)C2)[nH]1 (racemic) [ZZZ029, 4-[5-(1-ethyl-3-methyl-1H-pyrazol-5-yl)-4H-1,2,4-triazol-3-yl]-1-{3-[(2S)-2-methylmorpholin-4-yl]propyl}-1H-indazole-6-carboxamide] |
| > 990 nM | CCn1nc(C)cc1-c1nnc(-c2cc(C(N)=O)cc3c2cnn3[C@@H](C)CN(C)C)[nH]1 [ZZZ020, 1-[(2S)-1-(dimethylamino)propan-2-yl]-4-[5-(1-ethyl-3-methyl-1H-pyrazol-5-yl)-4H-1,2,4-triazol-3-yl]-1H-indazole-6-carboxamide] |
| > 900 nM | Cc1nn(CC(CO)CO)c(-c2n[nH]c(-c3cc(C(N)=O)cc4c3cnn4C)n2)c1F [ZZZ049, 4-(3-{4-fluoro-1-[3-hydroxy-2-(hydroxymethyl)propyl]-3-methyl-1H-pyrazol-5-yl}-1H-1,2,4-triazol-5-yl)-1-methyl-1H-indazole-6-carboxamide] |
| > 990 nM | CCn1nc(C)cc1-c1nnc(-c2cc(C(N)=O)cc3c2cnn3Cc2noc3c2CNCC3)[nH]1 [ZZZ068, 4-[5-(1-ethyl-3-methyl-1H-pyrazol-5-yl)-4H-1,2,4-triazol-3-yl]-1-[(4,5,6,7-tetrahydro[1,2]oxazolo[4,5-c]pyridin-3-yl)methyl]-1H-indazole-6-carboxamide] |
| > 990 nM | CCn1nc(C)c(F)c1-c1nc(-c2c(F)c(C(N)=O)cc3c2cnn3C)n(C)n1 [ZZZ130, 4-[3-(1-ethyl-4-fluoro-3-methyl-1H-pyrazol-5-yl)-1-methyl-1H-1,2,4-triazol-5-yl]-5-fluoro-1-methyl-1H-indazole-6-carboxamide] |
| 373 nM | CCn1nc(C)cc1-c1n[nH]c(-c2cc(C(N)=O)cc3c2cnn3CCN2CCO[C@@H](C)C2)n1 (racemic) [YY08, 4-[5-(1-ethyl-3-methyl-1H-pyrazol-5-yl)-4H-1,2,4-triazol-3-yl]-1-{2-[(2S)-2-methylmorpholin-4-yl]ethyl}-1H-indazole-6-carboxamide] |
| > 990 nM | CCn1nc(C)cc1-c1n[nH]c(-c2cc(C(N)=O)cc3c2cnn3CCN2C3COCC2C3)n1 [ZZZ090, 4-[3-(1-ethyl-3-methyl-1H-pyrazol-5-yl)-1H-1,2,4-triazol-5-yl]-1-[2-(3-oxa-6-azabicyclo[3.1.1]heptan-6-yl)ethyl]-1H-indazole-6-carboxamide] |
| > 990 nM | CCn1nc(C)cc1-c1nnc(-c2cc(C(N)=O)cc3nn(CCN(C)C)cc23)[nH]1 [ZZZ006, 2-[2-(dimethylamino)ethyl]-4-[5-(1-ethyl-3-methyl-1H-pyrazol-5-yl)-4H-1,2,4-triazol-3-yl]-2H-indazole-6-carboxamide] |

Continued, molecule first:

| SMILES | Ki |
| --- | --- |
| CCn1nc(C)cc1-c1nnc(-c2c(C(F)F)c(C(N)=O)cc3c2cnn3C)[nH]1 [ZZZ011, 5-(difluoromethyl)-4-[5-(1-ethyl-3-methyl-1H-pyrazol-5-yl)-4H-1,2,4-triazol-3-yl]-1-methyl-1H-indazole-6-carboxamide] | > 270 nM |
| CCn1nc(C)cc1-c1nnc(-c2cc(C(N)=O)cc3c2cnn3C[C@@H](C)N(C)C)[nH]1 [ZZZ015, 1-[(2R)-2-(dimethylamino)propyl]-4-[5-(1-ethyl-3-methyl-1H-pyrazol-5-yl)-4H-1,2,4-triazol-3-yl]-1H-indazole-6-carboxamide] | > 990 nM |
| CCn1nc(C)c(F)c1-c1nc(-c2cc(C(N)=O)cc3c2cnn3C)n(C)n1 [ZZZ129, 4-[3-(1-ethyl-4-fluoro-3-methyl-1H-pyrazol-5-yl)-1-methyl-1H-1,2,4-triazol-5-yl]-1-methyl-1H-indazole-6-carboxamide] | 952 nM |
| CCn1nc(C)cc1-c1nnc(-c2cc(C(N)=O)cc3c2cnn3CCN2CCC2)[nH]1 [ZZZ039, 1-[2-(azetidin-1-yl)ethyl]-4-[5-(1-ethyl-3-methyl-1H-pyrazol-5-yl)-4H-1,2,4-triazol-3-yl]-1H-indazole-6-carboxamide] | > 990 nM |
| CCn1nc(C)cc1-c1n[nH]c(-c2cc(C(N)=O)cc3c2cnn3CCN(C)CC#N)n1 [ZZZ101, 1-{2-[(cyanomethyl)(methyl)amino]ethyl}-4-[3-(1-ethyl-3-methyl-1H-pyrazol-5-yl)-1H-1,2,4-triazol-5-yl]-1H-indazole-6-carboxamide] | 509 nM |
| CCn1nc(C)cc1-c1n[nH]c(-c2cc(C(N)=O)cc3c2cnn3CCN2CCC23CC3)n1 [ZZZ093, 1-[2-(4-azaspiro[2.3]hexan-4-yl)ethyl]-4-[3-(1-ethyl-3-methyl-1H-pyrazol-5-yl)-1H-1,2,4-triazol-5-yl]-1H-indazole-6-carboxamide] | > 990 nM |
| CCn1nc(C)cc1-c1n[nH]c(-c2cc(C(N)=O)cc3c2cnn3CCN2CCO[C@H](CO)C2)n1 [ZZZ118, 4-[3-(1-ethyl-3-methyl-1H-pyrazol-5-yl)-1H-1,2,4-triazol-5-yl]-1-{2-[(2S)-2-(hydroxymethyl)morpholin-4-yl]ethyl}-1H-indazole-6-carboxamide] | 538 nM |
| CCn1nc(C)cc1-c1nnc(-c2cc(C(N)=O)cc3c2cnn3CCN2CCC(C)CC2)[nH]1 [ZZZ018, 4-[5-(1-ethyl-3-methyl-1H-pyrazol-5-yl)-4H-1,2,4-triazol-3-yl]-1-[2-(4-methylpiperidin-1-yl)ethyl]-1H-indazole-6-carboxamide] | 748 nM |
| CCn1nc(C)cc1-c1nnc(-c2cc(C(N)=O)cc3c2cnn3[C@H](C)CCCN(C)C)[nH]1 (racemic) [ZZZ031, 1-[(2R)-5-(dimethylamino)pentan-2-yl]-4-[5-(1-ethyl-3-methyl-1H-pyrazol-5-yl)-4H-1,2,4-triazol-3-yl]-1H-indazole-6-carboxamide] | > 990 nM |
| CCn1nc(C)cc1-c1nnc(-c2cc(C(N)=O)cc3c2cnn3CC2CCCN3CCCCC23)[nH]1 (stereo not shown) [ZZZ016, 4-[5-(1-ethyl-3-methyl-1H-pyrazol-5-yl)-4H-1,2,4-triazol-3-yl]-1-[(octahydro-2H-quinolizin-1-yl)methyl]-1H-indazole-6-carboxamide] | 826 nM |
| CCn1nc(C)cc1-c1nnc(-c2cc(C(N)=O)cc3c2cnn3CCCC2CCCNC2)[nH]1 (stereo not shown) [ZZZ079, 4-[5-(1-ethyl-3-methyl-1H-pyrazol-5-yl)-4H-1,2,4-triazol-3-yl]-1-[3-(piperidin-3-yl)propyl]-1H-indazole-6-carboxamide] | 785 nM |
| CCn1nc(C)cc1-c1nnc(-c2cc(C(N)=O)cc3c2cnn3[C@H]2CCCNC2)[nH]1 [ZZZ061, 4-[5-(1-ethyl-3-methyl-1H-pyrazol-5-yl)-4H-1,2,4-triazol-3-yl]-1-[(3S)-piperidin-3-yl]-1H-indazole-6-carboxamide] | 882 nM |
| CCn1nc(C)cc1-c1nnc(-c2cc(C(N)=O)cc3c2cnn3C[C@H]2[C@@H]3CNC[C@@H]32)[nH]1 [ZZZ058, 1-{[(1R,5S,6r)-3-azabicyclo[3.1.0]hexan-6-yl]methyl}-4-[5-(1-ethyl-3-methyl-1H-pyrazol-5-yl)-4H-1,2,4-triazol-3-yl]-1H-indazole-6-carboxamide] | > 990 nM |
| Cc1cc(-c2n[nH]c(-c3nc(C(N)=O)cc4c3cnn4C)n2)n(CCCN)n1 [ZZZ132, 4-{3-[1-(3-aminopropyl)-3-methyl-1H-pyrazol-5-yl]-1H-1,2,4-triazol-5-yl}-1-methyl-1H-pyrazolo[4,3-c]pyridine-6-carboxamide] | > 990 nM |
| CCn1nc(C)cc1-c1nc(-c2nc(C(N)=O)cc3c2cnn3C)n(CCN)n1 [ZZZ047, 4-[1-(2-aminoethyl)-3-(1-ethyl-3-methyl-1H-pyrazol-5-yl)-1H-1,2,4-triazol-5-yl]-1-methyl-1H-pyrazolo[4,3-c]pyridine-6-carboxamide] | > 90 nM |
| CCn1nc(CO)c(F)c1-c1nc(-c2nc(C(N)=O)cc3c2cnn3C)n(C)n1 [ZZZ052, 4-{3-[1-ethyl-4-fluoro-3-(hydroxymethyl)-1H-pyrazol-5-yl]-1-methyl-1H-1,2,4-triazol-5-yl}-1-methyl-1H-pyrazolo[4,3-c]pyridine-6-carboxamide] | > 990 nM |
| CCn1nc(C)cc1-c1n[nH]c(-c2cc(C(N)=O)cc3c2cnn3CCN2CCO[C@@H](C)[C@H]2C)n1 [ZZZ088, 1-{2-[(2S,3R)-2,3-dimethylmorpholin-4-yl]ethyl}-4-[3-(1-ethyl-3-methyl-1H-pyrazol-5-yl)-1H-1,2,4-triazol-5-yl]-1H-indazole-6-carboxamide] | > 990 nM |
| CCn1nc(C)cc1-c1nnc(-c2cc(C(N)=O)cc3c2cnn3CC2CC3(CCN(C)CC3)C2)[nH]1 [ZZZ033, 4-[5-(1-ethyl-3-methyl-1H-pyrazol-5-yl)-4H-1,2,4-triazol-3-yl]-1-[(7-methyl-7-azaspiro[3.5]nonan-2-yl)methyl]-1H-indazole-6-carboxamide] | 572 nM |
| CCn1nc(C)cc1-c1nc(CN)c(-c2nc(C(N)=O)cc3c2cnn3C)o1 [ZZZ051, 4-[4-(aminomethyl)-2-(1-ethyl-3-methyl-1H-pyrazol-5-yl)-1,3-oxazol-5-yl]-1-methyl-1H-pyrazolo[4,3-c] pyridine-6-carboxamide] | 191 nM |
